The values below come from article PMC2931832 (ACS medicinal chemistry letters, 2010).

One series concerns H460 lung tumor cell. In words: cell culture-based proliferation assay, H460. Particulars: Homo sapiens, NCI-H460, read-out: IC50 of H460 tumor cell growth.
A further series relates to H1299 lung tumor cell. The experiment in a line: cell culture-based proliferation assay, H1299. The conditions noted are these: Homo sapiens, NCI-H1299, read-out: IC50 of H1299 tumor cell growth.
The target of another series is CYP2C9 (Homo sapiens, UniProt P11712). In words: cytochrome p450 CYP2C9 inhibition. The conditions noted are these: 6 µM of compound.
CYP2C9, sequence (P11712 whole entry): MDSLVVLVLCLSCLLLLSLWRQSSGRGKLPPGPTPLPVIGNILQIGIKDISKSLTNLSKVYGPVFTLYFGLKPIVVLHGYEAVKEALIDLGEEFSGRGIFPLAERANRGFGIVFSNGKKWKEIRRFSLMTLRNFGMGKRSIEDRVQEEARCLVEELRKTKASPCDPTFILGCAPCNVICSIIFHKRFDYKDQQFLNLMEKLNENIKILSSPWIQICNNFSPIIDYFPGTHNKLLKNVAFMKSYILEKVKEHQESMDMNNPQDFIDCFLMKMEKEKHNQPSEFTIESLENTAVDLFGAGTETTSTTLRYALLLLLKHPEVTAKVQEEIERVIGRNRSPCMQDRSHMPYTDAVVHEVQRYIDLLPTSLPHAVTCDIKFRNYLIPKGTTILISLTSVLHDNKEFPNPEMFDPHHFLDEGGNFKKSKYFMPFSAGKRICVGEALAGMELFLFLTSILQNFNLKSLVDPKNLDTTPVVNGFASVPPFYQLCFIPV
For series [1], the target named is human Ether-a-go-go Related Gene (hERG) K+ channel (Homo sapiens, UniProt Q12809). In words: hERG K+ channel binding / blockage. The conditions noted are these: 6 µM of compound.
human Ether-a-go-go Related Gene (hERG) K+ channel, sequence (Q12809 whole entry): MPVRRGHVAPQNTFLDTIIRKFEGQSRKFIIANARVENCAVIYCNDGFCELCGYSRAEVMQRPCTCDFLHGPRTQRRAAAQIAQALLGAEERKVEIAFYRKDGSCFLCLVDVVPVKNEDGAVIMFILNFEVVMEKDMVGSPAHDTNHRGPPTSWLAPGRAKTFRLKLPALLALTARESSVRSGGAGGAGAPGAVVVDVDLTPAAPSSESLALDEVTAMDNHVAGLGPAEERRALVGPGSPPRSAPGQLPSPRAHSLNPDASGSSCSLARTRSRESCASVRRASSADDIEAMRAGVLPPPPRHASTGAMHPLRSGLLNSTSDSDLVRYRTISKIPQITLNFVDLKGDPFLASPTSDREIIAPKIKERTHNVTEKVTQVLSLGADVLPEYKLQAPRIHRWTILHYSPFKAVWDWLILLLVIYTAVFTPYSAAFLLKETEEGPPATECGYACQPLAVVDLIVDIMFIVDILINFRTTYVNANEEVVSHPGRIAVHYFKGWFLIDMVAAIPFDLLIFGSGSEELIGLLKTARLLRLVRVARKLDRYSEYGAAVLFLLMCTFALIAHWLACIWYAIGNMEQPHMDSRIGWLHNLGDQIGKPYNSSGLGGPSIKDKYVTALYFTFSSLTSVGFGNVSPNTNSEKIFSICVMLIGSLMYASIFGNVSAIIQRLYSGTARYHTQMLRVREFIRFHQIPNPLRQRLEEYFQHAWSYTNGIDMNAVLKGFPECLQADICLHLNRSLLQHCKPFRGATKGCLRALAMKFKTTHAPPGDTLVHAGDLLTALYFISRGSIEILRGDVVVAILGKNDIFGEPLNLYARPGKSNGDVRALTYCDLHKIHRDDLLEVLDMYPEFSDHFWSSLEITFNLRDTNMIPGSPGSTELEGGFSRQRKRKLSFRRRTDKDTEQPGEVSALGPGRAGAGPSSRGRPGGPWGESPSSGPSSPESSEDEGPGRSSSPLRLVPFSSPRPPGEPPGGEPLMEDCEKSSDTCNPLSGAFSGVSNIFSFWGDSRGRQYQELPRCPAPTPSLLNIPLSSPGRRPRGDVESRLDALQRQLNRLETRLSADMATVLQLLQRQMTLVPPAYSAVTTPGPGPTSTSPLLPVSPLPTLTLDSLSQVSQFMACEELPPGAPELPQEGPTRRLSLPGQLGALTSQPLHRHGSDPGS
Series [2] deals with breast, ovarian and lymphatic leukemia. Particulars: cited from earlier work.
In a further series the target is EGFR (Homo sapiens, UniProt P00533). The experiment in a line: EGFR kinase activity, fluorescence-based coupled-enzyme assay. The class given is biochemical.
EGFR, sequence (P00533 25-1210): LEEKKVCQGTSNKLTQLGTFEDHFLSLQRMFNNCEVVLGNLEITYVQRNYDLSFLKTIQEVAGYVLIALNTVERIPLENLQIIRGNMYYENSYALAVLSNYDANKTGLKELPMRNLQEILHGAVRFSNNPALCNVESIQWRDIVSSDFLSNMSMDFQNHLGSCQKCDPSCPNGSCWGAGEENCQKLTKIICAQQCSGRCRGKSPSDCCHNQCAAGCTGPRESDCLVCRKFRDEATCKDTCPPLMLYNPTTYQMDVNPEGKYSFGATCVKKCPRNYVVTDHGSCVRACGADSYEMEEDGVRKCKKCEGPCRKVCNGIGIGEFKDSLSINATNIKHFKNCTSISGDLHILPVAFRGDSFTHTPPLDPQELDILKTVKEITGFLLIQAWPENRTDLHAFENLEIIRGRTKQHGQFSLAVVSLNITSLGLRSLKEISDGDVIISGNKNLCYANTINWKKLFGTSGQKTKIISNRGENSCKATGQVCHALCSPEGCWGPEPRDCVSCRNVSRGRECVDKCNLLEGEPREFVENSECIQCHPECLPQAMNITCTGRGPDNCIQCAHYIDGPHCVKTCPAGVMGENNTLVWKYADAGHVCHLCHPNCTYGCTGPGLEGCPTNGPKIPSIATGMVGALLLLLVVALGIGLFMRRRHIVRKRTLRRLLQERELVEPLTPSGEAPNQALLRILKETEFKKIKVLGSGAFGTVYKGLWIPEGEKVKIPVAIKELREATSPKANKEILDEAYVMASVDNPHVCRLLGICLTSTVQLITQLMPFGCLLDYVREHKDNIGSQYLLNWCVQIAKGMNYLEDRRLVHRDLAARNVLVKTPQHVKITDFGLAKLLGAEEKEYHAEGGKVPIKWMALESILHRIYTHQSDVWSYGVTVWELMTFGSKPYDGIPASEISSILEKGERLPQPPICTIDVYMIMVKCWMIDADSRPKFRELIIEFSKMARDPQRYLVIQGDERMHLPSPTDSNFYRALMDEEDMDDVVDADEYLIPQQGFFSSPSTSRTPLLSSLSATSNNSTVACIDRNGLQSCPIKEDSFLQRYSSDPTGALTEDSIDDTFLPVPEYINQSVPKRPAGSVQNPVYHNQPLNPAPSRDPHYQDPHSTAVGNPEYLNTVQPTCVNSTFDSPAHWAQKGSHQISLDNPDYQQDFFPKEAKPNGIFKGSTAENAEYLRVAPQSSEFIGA

Usually IC50 stands for the midpoint of a concentration-inhibition curve.

With `C#Cc1cccc(Nc2ncnc3cc(OCCOC)c(OCCOC)cc23)c1` [erlotinib, reference compound], the IC50 in the series with H460 lung tumor cell and in the series with H1299 lung tumor cell was about 10 µM in each case. In addition, the “inhibition of CYP2C9 (in words)” value on CYP2C9 is given as “little inhibition”.
`C[C@H]1Oc2cc3c(-c4c(O)cc(O)c5c(O)c6c(cc45)O[C@H](C)[C@@H](C)C6=O)c(O)cc(O)c3c(O)c2C(=O)[C@@H]1C` [Compound 12, Chaetochromin A]: the IC50 is about 1 µM in the series with H1299 lung tumor cell and 0.25 µM against EGFR. The “hERG K+ channel blockage (in words)” value in series [1] is on record as “significant blockage”. Besides, the “efficacy in breast, ovarian and lymphatic leukemia” value in series [2] is on record as “shown efficacy”. In addition, the “inhibition of CYP2C9 (in words)” value against CYP2C9 is reported as “significant inhibition”.
